Data: paper PMC8741257, “Identification of novel non-toxic and anti-angiogenic α-fluorinated chalcones as potent colchicine binding site inhibitors” (Journal of Enzyme Inhibition and Medicinal Chemistry, 2022)

Key:
[1] = tested on: MGC-803 (human gastric cancer cells); experiment: Antiproliferative activity (SRB / CCK-8 assay); type: cell-based; details: mean ± SD
Description: (§1) MCF-7, MGC-803, Hela and HepG-2 cell lines were cultured in a base medium (90% DMEM and 10% FBS), A549 and U937 were cultured in a base medium (90% PRMI-1640 and 10% FBS) at 37 °C, 5% CO2 and a saturated humidity atmosphere. All the mediums were supplemented with 10% FBS and 1% […]/streptomycin (all cells were purchased from Shanghai Institutes for Biological Sciences, Chinese Academy of Sciences, Shanghai, China).
(§2) A549, MGC-803, MCF-7, HepG2 and Hela cells were seeded at the appropriate cell line density (3 × 10^3 to 4 × 10^3 cells/well). The cells were then incubated at 37 °C for 24 h in a humidified 5%CO2 in 96-well plates prior to experiments. After a further 72 h of incubation, cell proliferation was quantified with SRB ([…]) to determine the number of surviving cells. The absorbance at 560 nm was measured by microplate. The experiment was repeated three times, and the data were listed in the form of mean and standard deviation.
(§3) MGC-803 cells were collected and seeded into 96 well plates at a density of 8000/well. The mediums containing drugs and cell suspension were added into the well. The cells were incubated in 5% CO2 incubator at 37 °C for 72 h. Each well was added 10 µL CCK8 solution, and the incubation time was 3–4 h. The absorbance value at 450 nm was measured by microplate reader. Data are calculated with GraphPad Prism5 software.

[2] = tested on: U937 (human leukaemia cells); experiment: Antiproliferative activity (CCK-8 assay); type: cell-based; details: U-937, mean ± SD, three separated experiments, 72 h
Description: as §1, §3

[3] = tested on: HepG2 (human liver cancer cells); experiment: Antiproliferative activity (SRB assay); type: cell-based; details: mean ± SD, three separated experiments, 72 h
Description: as §1, §2

[4] = tested on: A549 (human non-small cell lung cancer); experiment: Antiproliferative activity (SRB assay); type: cell-based; details: mean ± SD, three separated experiments, 72 h
Description: as §1, §2

[5] = tested on: MCF-7 (human breast cancer cells); experiment: Antiproliferative activity (SRB assay); type: cell-based; details: MCF7, mean ± SD, three separated experiments, 72 h
Description: as §1, §2

[6] = tested on: Hela (human cervical cancer cells); experiment: Antiproliferative activity (SRB assay); type: cell-based; details: mean ± SD, three separated experiments, 72 h
Description: as §1, §2

[7] = tested on: six human cancer cell lines (MCF-7, MGC-803, HepG2, Hela, A549, U937); experiment: Antiproliferative activity, summary over the tested cancer cell lines; type: cell-based; details: several tested cancer cell lines, range, read-out: IC50, inhibitory effect
Description: as §2, §3

[8] = tested on: LO2 (human hepatocyte cells); experiment: Growth inhibition of normal human cells; type: cell-based; details: triplicate, mean ± SD
Description: (§4) The effect of compound 4c on three types of normal human cell lines including LO2 (human hepatocyte cells), 293 T (human embryonic kidney cell) and THP-1-derived macrophages was then determined.

[9] = tested on: 293 T (human embryonic kidney cell); experiment: Growth inhibition of normal human cells; type: cell-based; details: HEK-293T, triplicate, mean ± SD
Description: as §4

[10] = tested on: THP-1-derived macrophages; experiment: Growth inhibition of normal human cells; type: cell-based; details: Macrophage, triplicate, mean ± SD
Description: as §4

[11] = three separated experiments, 72 h

Row | Structure (SMILES) | IC50 [1, 11] [nM] | IC50 [2] [nM] | IC50 [3] [nM] | IC50 [4] [nM] | IC50 [5] [nM] | IC50 [6] [nM] | melting point [°C] | IC50 [7] [nM] | IC50 ([1]; Table 2, triplicate) [nM] | IC50 [8] [nM] | IC50 [9] [nM] | IC50 [10] [nM]
1 | COc1cc(C(=O)/C(F)=C/c2cc3c(cc2Br)OCO3)cc(OC)c1OC [4l, (Z)-3–(6-bromobenzo[d][1,3]dioxol-5-yl)-2-fluoro-1–(3,4,5-trimethoxyphenyl)prop-2-en-1-one] | > 5000 | > 5000 | > 5000 | > 5000 | > 5000 | > 5000 | 156.3 to 157.8 | – | – | – | – | –
2 | COc1cc(C(=O)/C(F)=C/c2ccc3occc3c2)cc(OC)c1OC [4m, (Z)-3-(benzofuran-5-yl)-2-fluoro-1–(3,4,5-trimethoxyphenyl)prop-2-en-1-one] | 362 ± 123 | 710 ± 27 | 1407 ± 14 | > 5000 | 1002 ± 7 | 925 ± 7 | 94.1 to 94.2 | – | – | – | – | –
3 | COc1cc(C(=O)/C(F)=C/c2ccc3c(c2)CCO3)cc(OC)c1OC [4n, (Z)-3–(2,3-dihydrobenzofuran-5-yl)-2-fluoro-1–(3,4,5-trimethoxyphenyl)prop-2-en-1-one] | 43 ± 1 | 31 ± 1 | 116 ± 1 | 364 ± 3 | 128 ± 4 | 42 ± 1 | 100.8 to 103.7 | 31 to 364 | – | – | – | –
4 | COc1cc(C(=O)/C(F)=C/c2cc3ccccc3o2)cc(OC)c1OC [4o, (Z)-3-(benzofuran-2-yl)-2-fluoro-1–(3,4,5-trimethoxyphenyl)prop-2-en-1-one] | 3301 ± 26 | > 5000 | > 5000 | > 5000 | 4408 ± 43 | > 5000 | 115.5 to 116.6 | – | – | – | – | –
5 | COc1cc(C(=O)/C(F)=C/c2oc3ccccc3c2C)cc(OC)c1OC [4p, (Z)-2-fluoro-3–(3-methylbenzofuran-2-yl)-1–(3,4,5-trimethoxyphenyl)prop-2-en-1-one] | > 5000 | > 5000 | > 5000 | > 5000 | > 5000 | > 5000 | 117.4 to 118.8 | – | – | – | – | –
6 | COc1cc(C(=O)/C(F)=C/c2ccc3oc4ccccc4c3c2)cc(OC)c1OC [4q, (Z)-3-(dibenzo[b,d]furan-2-yl)-2-fluoro-1–(3,4,5-trimethoxyphenyl)prop-2-en-1-one] | > 5000 | > 5000 | > 5000 | > 5000 | > 5000 | > 5000 | 114 to 116.4 | – | – | – | – | –
7 | COc1cc(C(=O)/C(F)=C/c2cc3c(cc2[N+](=O)[O-])OCO3)cc(OC)c1OC [4r, (Z)-2-fluoro-3–(6-nitrobenzo[d][1,3]dioxol-5-yl)-1–(3,4,5-trimethoxyphenyl)prop-2-en-1-one] | > 5000 | > 5000 | > 5000 | > 5000 | > 5000 | > 5000 | 174.7 to 176.6 | – | – | – | – | –
8 | COc1cc(C(=O)/C(F)=C/c2ccc3sc4ccccc4c3c2)cc(OC)c1OC [4s, (Z)-3-(dibenzo[b, d]thiophen-2-yl)-2-fluoro-1–(3,4,5-trimethoxyphenyl)prop-2-en-1-one] | > 5000 | > 5000 | > 5000 | > 5000 | > 5000 | > 5000 | 142.6 to 143.8 | – | – | – | – | –
9 | COc1cc(C(=O)/C(F)=C/c2coc3ccccc23)cc(OC)c1OC [4t, (Z)-3-(benzofuran-3-yl)-2-fluoro-1–(3,4,5-trimethoxyphenyl)prop-2-en-1-one] | – | 125 ± 2 | 1063 ± 8 | 1020 ± 64 | 1293 ± 7 | 203 ± 6 | 103.7 to 104.8 | – | – | – | – | –
10 | COc1ccc(/C=C\c2cc(OC)c(OC)c(OC)c2)cc1O [CA-4, Combretastatin A4, reference compound] | 2 ± 1 | 0.3 | 7 ± 1 | 5 ± 1 | – | 8 ± 1 | – | – | 2 ± 1 | 5 ± 1 | 12 ± 2 | 7 ± 1
